Values quoted from earlier work, collected in US20130156896A1, “CELLULOSE-BASED FOOD CASING HAVING A FUNGICIDAL FINISH AND A METHOD FOR PROTECTING CELLULOSE-BASED FOOD CASINGS FROM MOLD INFESTATION” (CASETECH GMBH, priority 2011, published 2013).

Tests used:
microorganisms = settings: known from the literature
Staphylococcus aureus = settings: for example against Staphylococcus aureus
[1] = animal testing

Compound	activity against microorganisms (microorganisms)	antimicrobial activity (Staphylococcus aureus)	chemoprotective effect against carcinogens [1]
COc1ccc(O)c(C(C)(C)C)c1 [BHA, butylated hydroxyanisole]	relatively weak activity	–	–
CC(C)c1cc2c(c(O)c1O)[C@@]1(C(=O)O)CCCC(C)(C)[C@@H]1CC2 [carnosic acid]	–	antimicrobial activity	chemoprotective effect
